Here are results for eight compounds from EP0526840B1, “Condensed naphthyridine derivatives” (KYOWA HAKKO KOGYO CO., LTD., priority 1991, dated 1993).

What is called inhibition is the change of the read-out against control, counted positive when it falls. By IC50 is commonly meant the point on the concentration scale where inhibition reaches its midpoint.

One data set concerns spleen cells. Kind of data set: Plaque forming cell assay (inhibition of antibody production). It counts as cell-based, Balb/c strain mice. The settings on record: Mus musculus, 120 h, inhibition of antibody production (PFC count), incubated 5 days, read-out: Inhibition rate (%); for inhibition at 10 µM: 10^-5M; for inhibition at 1 µM: 10^-6M. The procedure: The plaque forming cell assay was performed by the following manner with reference to the method of Jerne [Science, 140, 405, (1963)] and the method of Yamamoto et al. [Drugs Exptl. Clin. Res., 8, 5, (1982)].
Male Balb/c strain mice (aged 7 weeks, SLC) were sensitized with 1 x 10^8 sheep red blood cells (Bio Test Research Institute), and 6 or 7 days after the sensitization, the spleen was extirpated. The cells obtained from the spleen were treated with ACT solution (tris-ammonium chloride isotonic buffer) to remove red blood cells. The cells were washed three times with an RPMI-1640 medium (Nissui Pharmaceutical Co., Ltd.). The spleen cells (1 x 10^7 cells), the test compound dissolved in dimethyl sulfoxide and sheep blood red cells (5 x 10^6) were suspended in an RPMI-1640 medium containing 10% bovine serum (Gibco Company), 2-mercaptoethanol (5 x 10^-5M), 50 µg/ml of streptomycin and 50 IU/ml of penicillin. The suspension was distributed into a microculture plate (NUNC Co., Ltd., 24 holes), and incubated for 5 days in a carbon dioxide gas incubator at 37°C.
After the termination of the incubation, the cells were transferred to a plastic test tube. The supernatant was removed by centrifugal separation (2000 rpm), and the pellet was re-suspended in 1 ml of an RPMI-1640 culture medium. The cell suspension, sheep blood red cells, and guinea pig complement (Cedarlene Institute) were incubated by the method of Cunningham [Immunology, 14, 599, (1968)], at 37°C for 1 to 2 hours. The appearing direct plaque cells (PFC count) in suspension were counted. From the resulting PFC count, the inhibition rate of the antibody production of the test compound was determined by the following formula. Inhibition rate (%) =(A - B)/(A)x 100 [formula] A : PFC count in the absence of test compound (dimethylsulfoxide alone) B : PFC count in the presence of test compound

Another data set has as its system tracheae. Description: Passive Schultz-Dale (S-D) reaction, relaxation of antigen-contracted tracheal strips. The following applies: Cavia porcellus; concentration of 50% relaxation rate; passively sensitized guinea pig tracheal strips contracted with egg white albumin 1 µg/ml. The arrangement: species or system Hartley guinea pigs. The procedure:
Male Hartley guinea pigs weighing 350 to 500 g were passively sensitized by intraperitoneal injection of rabbit anti-OA serum prepared in advance by the method of Koda et al. [Folia Pharmacol., Japon 66, 237, (1970)]. After 24 hours, the guinea pigs were stunned and exsanguinated, and then tracheae were removed. The zig-zag strips of the tracheae were prepared by the method of Emmerson and Mackay [J. Pharm. Pharmacol., 31, 798, (1979)]. The strips were suspended in Krebs-Henseleit solution at 37°C under aeration of a mixed gas of 95% oxygen and 5% carbon dioxide, and equilibrated for one hour. Then, antigen (egg white albumin) was introduced in the solution (final concentration; 1 µg/ml), and the contraction was measured by isotonictransducer (TD-112s, Nihon Kohden Co., Ltd.) and recorded on a recorder (Type 3066, Yokogawa-Hokushin Denki, Co., Ltd.). After the contraction curves reached a plateau, the test compounds were successively added in order to get cumulative concentration-relaxation curves. The concentration of 50% relaxation rate (IC50) was calculated from the regression line, which was obtained from the cumulative concentration-relaxation curves.

For a further data set, the system named is PAF-induced mortality. Kind of data set: Inhibition effect on platelet activating factor (PAF)-induced mortality. Type of data set: in vivo, dd mice. The settings on record: Mus musculus, po, 2 h, minimum effective dose, orally, one hour before 40 µg/kg PAF intravenously, mortality two hours after PAF, read-out: Inhibition of PAF-induced mortality MED. The procedure: The experiment was performed by a minor modification of method of Carlson et al. [Agents and Actions, 21, 379 (1987)]. Groups each consisting of 10 male dd mice (weighing 28 to 32 g) were used, and 100 mg/kg of test compound or a saline (control) was orally administered. One hour after the administration of the test compound, 40 µg/kg of PAF (manufactured by Avanti Polar Lipids Co., Ltd.) were intravenously administered. Two hours after PAF injection, the mortality rate of the animals was observed. […]

For a further data set, the system named is hair growth. Kind of data set: Hair growth stimulation. It counts as in vivo, C3H/HeSlc-strain mice. The following applies: 16th day; applied once a day in ethanol : propyleneglycol (6 : 4); Compound 1 at 0.14 %, Compound 3 at 1.00 % (Table 4). The source says:
Effect of test compound on hair growth in mice was examined. Hair on the back of male C3H/HeSlc-strain mice aged 9 weeks, which was in the telogen of hair cycle was clipped off by an electric hair-clipper. The test compound dissolved in a solvent mixture [ethanol : propyleneglycol (6 : 4)] was uniformly applied to the hair removed area of the mice once a day. The group which received the solvent mixture alone was used as control.
Hair growth stimulation was estimated by measuring the ratio of the hair growing area to the test compound treated area by photograph. In the group having received the test comound, darkening of intraderma (indicating the formation of hair follicles) was observed on the 10th day, and then hair growth rapidly progressed.
In contrast, on the 16th day of the control group, darkening of intraderma was observed only in the part of the solvent treated area and hair growth scarcely occurred. […]

A further data set is described as follows: Acute toxicity test. It counts as in vivo, dd-strain mice. The following applies: orally administered; mortality observed for seven days. The procedure:
Male dd-strain mice weighing 20 -25 g, groups each consisting of 3 animals, were used, and Compound 1 and Compound 3 were orally administered. MLD was determined by observing the mortality for seven days after the administration. MLD of both compounds were over 300 mg/kg.

Take `O=c1c2c(-c3ccccc3)n[nH]c2c2cccnc2n1-c1ccccc1` [Compound 1, 3,5-Diphenyl-1H-pyrazolo[4,3-c][1,8]naphthyridin-4(5H)-one]: in the data set on spleen cells, the inhibition at 10 µM came out at 85.8% and the inhibition at 1 µM was 77.2%. Further, in the data set with tracheae, the IC50 turned out to be 3150 nM. The minimal effective dose in the data set on PAF-induced mortality turned out to be 10 mg/kg. Moreover, the “Hair growing area (%) Mean ± S.D.” value with hair growth is on record as 91.5 ± 8.0%. Moreover, the MLD entry in “Acute toxicity test” is given as “over 300 mg/kg”.

For `Cc1n[nH]c2c1c(=O)n(-c1ccccc1)c1ncccc21` [Compound 2, 3-Methyl-5-phenyl-1H-pyrazolo[4,3-c][1,8]naphthyridin-4(5H)-one], in the data set on spleen cells, the inhibition at 10 µM came to 92.4% and the inhibition at 1 µM was 85.8%.

Consider `CC(C)Cc1n[nH]c2c1c(=O)n(-c1ccccc1)c1ncccc21` [Compound 3, 3-Isobutyl-5-phenyl-1H-pyrazolo[4,3-c][1,8]naphthyridin-4(5H)-one], for which, in the data set with spleen cells, the inhibition at 10 µM amounted to 74.9% and the inhibition at 1 µM turned out to be 77.2%. For the same compound, the 50% inhibitory concentration (IC50) with tracheae turned out to be 258 nM. Further, the minimal effective dose in the data set with PAF-induced mortality amounted to 5 mg/kg. Further, in the data set on hair growth, the “Hair growing area (%) Mean ± S.D.” value turned out to be 91.8 ± 7.2%. Also, the MLD entry in the data set “Acute toxicity test” is given as “over 300 mg/kg”.

In the case of `Cc1nn(C)c2c1c(=O)n(-c1ccccc1)c1ncccc21` [Compound 4, 1,3-Dimethyl-5-phenyl-1H-pyrazo1o[4,3-c][1,8]naphthyridin-4(5H)-one], the inhibition at 10 µM in the data set on spleen cells worked out at 81.4%.

Turning to `Cn1nc(N)c2c(=O)n(-c3ccccc3)c3ncccc3c21` [Compound 6, 3-Amino-1-methyl-5-phenyl-1H-pyrazolo[4,3-c][1,8]naphthyridin-4(5H)-one], the inhibition at 10 µM in the data set on spleen cells worked out at 76.5%.

Take `Nc1c2c(=O)n(-c3ccccc3)c3ncccc3c2nn1-c1ccccc1` [Compound 7, 3-Amino-2,5-diphenyl-2H-pyrazolo[4,3-c][1,8]naphtyyridin-4(5H)-one]: the inhibition at 10 µM with spleen cells came out at 83.8%.

Take `O=c1c2c(-c3cccs3)n[nH]c2c2cccnc2n1-c1ccccc1` [Compound 10, 5-Phenyl-3-thienyl-1H-pyrazolo[4,3-c][1,8]naphthyridin-4(5H)-one]: in the data set with spleen cells, the inhibition at 10 µM was determined as 83.9% and the inhibition at 1 µM came to 57.1%. Also, the IC50 with tracheae worked out at 708 nM.

For the compound `COc1ccc(-c2n[nH]c3c2c(=O)n(-c2ccccc2)c2ncccc32)cc1` [Compound 11, 3-(4-methoxyphenyl)-5-phenyl-1H-pyrazolo[4,3-c][1,8]naphthyridin-4(5H)-one], in the data set on spleen cells, the inhibition at 10 µM stood at 99.5% and the inhibition at 1 µM was found to be 26.5%.
